{"source": "patent US5070187A", "about": "“Pharmacologically effective antagonists of arginine-vasopressin” (priority 1989, dated 1991)", "origin": "cited, not measured here", "details": "in vivo", "data": [{"substance": "[8-arginine]-vasopressin", "values": [{"measurement": "urinary clearance relative to that occurring elsewhere in the body", "result": "less than 5%"}]}]}
